Test results as given in patent US12180162B1, “2-amino-4-(4-bromophenyl)-6-methoxypyridine-3,5-dicarbonitrile as an antibacterial compound” (KING FAISAL UNIVERSITY, priority 2023, dated 2024).
Read-outs that look alike come from different tables or passages of the source.

Columns and labels:
Assay in all cases: Antibacterial screening, agar disc-diffusion method
Type in all cases: cell-based
Bacillus Cereus = conditions: Gram positive, 6 mm disc, 10 μL of 10 mg/mL in DMSO, DMSO zone subtracted
Experimental: (§1) The antibacterial properties of the synthesized compound 2-amino-4-(4-bromophenyl)-6-methoxypyridine-3,5-dicarbonitrile were studied by the method of agar disc-diffusion method. Sterilized filter papers (6 mm in diameter) were wetted with 10 μL of a solution of 2-amino-4-(4-bromophenyl)-6-methoxypyridine-3,5-dicarbonitrile (3) to be tested, containing 10 mg/mL in DMSO, and the discs were allowed to air dry. The discs were then placed onto the surface of agar plates (nutrient agar for bacteria) seeded with the test organism. Each plate contained 15 mL of the agar medium, previously seeded with 0.2 mL of the broth culture of each organism pregrown for 18 hours. The inhibition zones was measured in mm. Discs impregnated with DMSO were used as a control, and its inhibition zone was subtracted from the tested compound actual inhibition zone. […] Their antibacterial screened against gram positive bacteria namely Bacillus cereus and Staphylococcus aureus and gram-negative bacterial strains namely Pseudomonas aeruginosa and Escherichia coli.

Escherichia coli = conditions: Gram negative, 6 mm disc, 10 μL of 10 mg/mL in DMSO, DMSO zone subtracted
Experimental: as §1

Pseudomonas aeruginosa = conditions: Gram negative, 6 mm disc, 10 μL of 10 mg/mL in DMSO, DMSO zone subtracted
Experimental: as §1

Staphylococcus aureus = conditions: Gram positive, 6 mm disc, 10 μL of 10 mg/mL in DMSO, DMSO zone subtracted
Experimental: as §1

COc1nc(N)c(C#N)c(-c2ccc(Br)cc2)c1C#N [Compound 3, 2-amino-4-(4-bromophenyl)-6-methoxypyridine-3,5-dicarbonitrile]
zone of inhibition at 10000 µg/mL (Bacillus Cereus; sub-column A (not defined), read-out: inhibition zone, Bacillus Cereus, A): 32 mm
zone of inhibition at 10000 µg/mL (Bacillus Cereus; sub-column B (not defined), read-out: inhibition zone, Bacillus Cereus, B): 37 mm
zone of inhibition at 10000 µg/mL (Bacillus Cereus; sub-column C (not defined), read-out: inhibition zone, Bacillus Cereus, C): 40 mm
zone of inhibition at 10000 µg/mL (Escherichia coli; sub-column A (not defined), read-out: inhibition zone, Escherichia coli, A): 39 mm
zone of inhibition at 10000 µg/mL (Escherichia coli; sub-column B (not defined), read-out: inhibition zone, Escherichia coli, B): 41 mm
zone of inhibition at 10000 µg/mL (Escherichia coli; sub-column C (not defined), read-out: inhibition zone, Escherichia coli, C): 46 mm
zone of inhibition at 10000 µg/mL (Pseudomonas aeruginosa; sub-column A (not defined), read-out: inhibition zone, Pseudomonas aeruginosa, A): 24 mm
zone of inhibition at 10000 µg/mL (Pseudomonas aeruginosa; sub-column B (not defined), read-out: inhibition zone, Pseudomonas aeruginosa, B): 34 mm
zone of inhibition at 10000 µg/mL (Pseudomonas aeruginosa; sub-column C (not defined), read-out: inhibition zone, Pseudomonas aeruginosa, C): 39 mm
zone of inhibition at 10000 µg/mL (Staphylococcus aureus; sub-column A (not defined), read-out: inhibition zone, Staphylococcus aureus, A): 18 mm
zone of inhibition at 10000 µg/mL (Staphylococcus aureus; sub-column B (not defined), read-out: inhibition zone, Staphylococcus aureus, B): 27 mm
zone of inhibition at 10000 µg/mL (Staphylococcus aureus; sub-column C (not defined), read-out: inhibition zone, Staphylococcus aureus, C): 33 mm
